Our source for the EC50 values is PubChem BioAssay AID2400 (Broad Institute, 2010).

The test deals with S. cerevisiae GRE-beta-galactosidase reporter, luminescence, 75 min. The test can be described thus: loss of DOC-induced GRE-beta-galactosidase reporter signal, dose response, Hsp90 inhibitor project, S. cerevisiae, luminescence (AID 2400).

Structures are written as SMILES. Several values for one entry are separate records, joined by “and”; a condition that tells them apart may be missing. Equal entries are not always repeated. Activity calls are given as the source filed them.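 How the source made its calls: active means fitted EC50 at or below ten times the top tested concentration; inconclusive means flat fit with activity between 30% and 70%, or an unusable fit; inactive means EC50 beyond ten times the top tested concentration.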

Regarding `CC1CCC(C(C)C)C(OC(=O)Cn2c(-c3ccc(Br)cc3)[n+](C)c3ccccc32)C1` (configuration not stated), the EC50 – broadly, the concentration that produces a half-maximal response – is > 16 µM (inactive). Turning to `NC(=NCCCCCCN=C(N)/N=C(\N)Nc1ccc(Cl)cc1)/N=C(\N)Nc1ccc(Cl)cc1`, the EC50 is > 16 µM (inactive) and > 15 µM (inactive).
